# Measured values: patent US20260262643A1, “HERBICIDAL BENZOXAZINES” (FMC CORPORATION, priority 2022, published 2026)
# Experiments:
# blackgrass [1] = experiment: Test A preemergence; format: in vivo, Alopecurus myosuroides
# How it was run: (§1)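 Greenhouse pot test, 10 days. Compound (non-phytotoxic solvent, surfactant) sprayed on soil at seeding or on seedlings at one- to two-leaf stage. Visual injury rated 0–100 against untreated plants.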
# corn [2] = experiment: Test A preemergence; format: in vivo, Zea mays
# How it was run: as §1
# foxtail, giant [3] = experiment: Test A preemergence; format: in vivo, Setaria faberi
# How it was run: as §1
# goosegrass [4] = experiment: Test A preemergence; format: in vivo, Eleusine indica
# How it was run: as §1
# kochia [5] = experiment: Test A preemergence; format: in vivo, Bassia scoparia
# How it was run: as §1
# oat, wild [6] = experiment: Test A preemergence; format: in vivo, Avena fatua
# How it was run: as §1
# pigweed, palmer [7] = experiment: Test A preemergence; format: in vivo, Amaranthus palmeri
# How it was run: as §1
# ragweed [8] = experiment: Test A preemergence; format: in vivo, Ambrosia artemisiifolia
# How it was run: as §1
# ryegrass, Italian [9] = experiment: Test A preemergence; format: in vivo, Lolium multiflorum
# How it was run: as §1
# soybean [10] = experiment: Test A preemergence; format: in vivo, Glycine max
# How it was run: as §1
# wheat [11] = experiment: Test A preemergence; format: in vivo, Triticum aestivum
# How it was run: as §1
# blackgrass [12] = experiment: Test A postemergence; format: in vivo, Alopecurus myosuroides
# How it was run: as §1
# corn [13] = experiment: Test A postemergence; format: in vivo, Zea mays; details: postemergence, 10 days; for Plant response rating, Corn: visual injury, 0 to 100 scale (0 no effect, 100 complete control)
# How it was run: as §1
# foxtail, giant [14] = experiment: Test A postemergence; format: in vivo, Setaria faberi; details: postemergence, 10 days; for Plant response rating, Foxtail, Giant: visual injury, 0 to 100 scale (0 no effect, 100 complete control)
# How it was run: as §1
# goosegrass [15] = experiment: Test A postemergence; format: in vivo, Eleusine indica; details: postemergence, 10 days; for Plant response rating, Goosegrass: visual injury, 0 to 100 scale (0 no effect, 100 complete control)
# How it was run: as §1
# kochia [16] = experiment: Test A postemergence; format: in vivo, Bassia scoparia; details: postemergence, 10 days; for Plant response rating, Kochia: visual injury, 0 to 100 scale (0 no effect, 100 complete control)
# How it was run: as §1
# oat, wild [17] = experiment: Test A postemergence; format: in vivo, Avena fatua; details: postemergence, 10 days; for Plant response rating, Oat, Wild: 500 g ai/ha, visual injury, 0 to 100 scale (0 no effect, 100 complete control)
# How it was run: as §1
# pigweed, palmer [18] = experiment: Test A postemergence; format: in vivo, Amaranthus palmeri; details: postemergence, 10 days; for Plant response rating, Pigweed, Palmer: 500 g ai/ha, visual injury, 0 to 100 scale (0 no effect, 100 complete control)
# How it was run: as §1
# ragweed [19] = experiment: Test A postemergence; format: in vivo, Ambrosia artemisiifolia; details: postemergence, 10 days; for Plant response rating, Ragweed: 500 g ai/ha, visual injury, 0 to 100 scale (0 no effect, 100 complete control)
# How it was run: as §1
# ryegrass, Italian [20] = experiment: Test A postemergence; format: in vivo, Lolium multiflorum; details: postemergence, 10 days; for Plant response rating, Ryegrass, Italian: 500 g ai/ha, visual injury, 0 to 100 scale (0 no effect, 100 complete control)
# How it was run: as §1
# soybean [21] = experiment: Test A postemergence; format: in vivo, Glycine max; details: postemergence, 10 days; for Plant response rating, Soybean: 500 g ai/ha, visual injury, 0 to 100 scale (0 no effect, 100 complete control)
# How it was run: as §1
# wheat [22] = experiment: Test A postemergence; format: in vivo, Triticum aestivum; details: postemergence, 10 days; for Plant response rating, Wheat: 500 g ai/ha, visual injury, 0 to 100 scale (0 no effect, 100 complete control)
# How it was run: as §1
# galium = experiment: Test A postemergence; format: in vivo, Galium aparine; details: postemergence, 10 days; for Plant response rating, Galium: visual injury, 0 to 100 scale (0 no effect, 100 complete control)
# How it was run: as §1
# horseweed = experiment: Test A postemergence; format: in vivo, Erigeron canadensis; details: postemergence, 10 days; for Plant response rating, Horseweed: visual injury, 0 to 100 scale (0 no effect, 100 complete control)
# How it was run: as §1
# barnyardgrass = experiment: Test B flooded paddy test; format: in vivo, Echinochloa crus-galli; details: 250 g ai/ha, Flood, 13 days, 0 to 100 scale (0 no effect, 100 complete control)
# How it was run: (§2)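 Compound is introduced into paddy water covering soil by 3 cm, treating plants that have reached two leaves. Pots are kept flooded at that depth under greenhouse conditions. Assessment at 13 days gives a 0–100 visual control score.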
# ducksalad = experiment: Test B flooded paddy test; format: in vivo, Heteranthera limosa; details: 250 g ai/ha, Flood, 13 days, 0 to 100 scale (0 no effect, 100 complete control)
# How it was run: as §2
# rice = experiment: Test B flooded paddy test; format: in vivo, Oryza sativa; details: 250 g ai/ha, Flood, 13 days, 0 to 100 scale (0 no effect, 100 complete control)
# How it was run: as §2
# sedge, umbrella = experiment: Test B flooded paddy test; format: in vivo, Cyperus difformis; details: 250 g ai/ha, Flood, 13 days, 0 to 100 scale (0 no effect, 100 complete control)
# How it was run: as §2
# [23] = 125 g ai/ha, visual injury after 10 days, 0 to 100 scale, 0 is no effect, 100 is complete control
# [24] = 500 g ai/ha, 0 to 100 scale (0 no effect, 100 complete control), 10 days
# [25] = 125 g ai/ha, 0 to 100 scale, 0 no effect, 100 complete control
compound,measurement,setting,value
Cc1ccc(-n2cnc(C3CC3)n2)cc1C(=O)N1C[C@H](C)Oc2c(Cl)cccc21 [Compound 67],"Plant response rating, Blackgrass",blackgrass [1]; [23],80
same,"Plant response rating, Blackgrass",blackgrass [1]; [24],90
same,"Plant response rating, Corn",corn [2]; [23],40
same,"Plant response rating, Corn",corn [2]; [24],50
same,"Plant response rating, Foxtail, Giant","foxtail, giant [3]; [23]",100
same,"Plant response rating, Foxtail, Giant","foxtail, giant [3]; [24]",100
same,"Plant response rating, Goosegrass",goosegrass [4]; [23],100
same,"Plant response rating, Goosegrass",goosegrass [4]; [24],100
same,"Plant response rating, Kochia",kochia [5]; [23],80
same,"Plant response rating, Kochia",kochia [5]; [24],100
same,"Plant response rating, Oat, Wild","oat, wild [6]; [23]",30
same,"Plant response rating, Oat, Wild","oat, wild [6]; [24]",90
same,"Plant response rating, Pigweed, Palmer","pigweed, palmer [7]; [23]",100
same,"Plant response rating, Pigweed, Palmer","pigweed, palmer [7]; [24]",100
same,"Plant response rating, Ragweed",ragweed [8]; [23],0
same,"Plant response rating, Ragweed",ragweed [8]; [24],30
same,"Plant response rating, Ryegrass, Italian","ryegrass, Italian [9]; [23]",100
same,"Plant response rating, Ryegrass, Italian","ryegrass, Italian [9]; [24]",100
same,"Plant response rating, Soybean",soybean [10]; [23],50
same,"Plant response rating, Soybean",soybean [10]; [24],70
same,"Plant response rating, Wheat",wheat [11]; [23],10
same,"Plant response rating, Wheat",wheat [11]; [24],30
same,"Plant response rating, Blackgrass","blackgrass [12]; 125 g ai/ha, postemergence, 10 days, visual injury, 0 to 100 scale (0 no effect, 100 complete control)",70
same,"Plant response rating, Blackgrass","blackgrass [12]; 500 g ai/ha, Postemergence, 0 to 100 scale",90
same,"Plant response rating, Corn",corn [13]; 125 g ai/ha,60
same,"Plant response rating, Corn",corn [13]; 500 g ai/ha,60
same,"Plant response rating, Foxtail, Giant","foxtail, giant [14]; 125 g ai/ha",50
same,"Plant response rating, Foxtail, Giant","foxtail, giant [14]; 500 g ai/ha",90
same,"Plant response rating, Goosegrass",goosegrass [15]; 125 g ai/ha,30
same,"Plant response rating, Goosegrass",goosegrass [15]; 500 g ai/ha,70
same,"Plant response rating, Kochia",kochia [16]; 125 g ai/ha,70
same,"Plant response rating, Kochia",kochia [16]; 500 g ai/ha,100
same,"Plant response rating, Oat, Wild","oat, wild [17]",60
same,"Plant response rating, Pigweed, Palmer","pigweed, palmer [18]",90
same,"Plant response rating, Ragweed",ragweed [19],70
same,"Plant response rating, Ryegrass, Italian","ryegrass, Italian [20]",100
same,"Plant response rating, Soybean",soybean [21],100
same,"Plant response rating, Wheat",wheat [22],30
same,"Plant response rating, Galium",galium; 125 g ai/ha,100
same,"Plant response rating, Galium",galium; 500 g ai/ha,100
same,"Plant response rating, Horseweed",horseweed; 125 g ai/ha,30
same,"Plant response rating, Horseweed",horseweed; 500 g ai/ha,30
same,"Plant response rating, Barnyardgrass",barnyardgrass,0
same,"Plant response rating, Ducksalad",ducksalad,30
same,"Plant response rating, Rice",rice,0
same,"Plant response rating, Sedge, Umbrella","sedge, umbrella",75
Cc1ccc(-n2cnc(C(C)C)n2)cc1C(=O)N1C[C@H](C)Oc2c(C)cccc21 [Compound 99],"Plant response rating, Blackgrass",blackgrass [1]; [23],80
same,"Plant response rating, Blackgrass",blackgrass [1]; [24],90
same,"Plant response rating, Corn",corn [2]; [23],10
same,"Plant response rating, Corn",corn [2]; [24],50
same,"Plant response rating, Foxtail, Giant","foxtail, giant [3]; [23]",100
same,"Plant response rating, Foxtail, Giant","foxtail, giant [3]; [24]",100
same,"Plant response rating, Goosegrass",goosegrass [4]; [23],100
same,"Plant response rating, Goosegrass",goosegrass [4]; [24],100
same,"Plant response rating, Kochia",kochia [5]; [23],100
same,"Plant response rating, Kochia",kochia [5]; [24],100
same,"Plant response rating, Oat, Wild","oat, wild [6]; [23]",70
same,"Plant response rating, Oat, Wild","oat, wild [6]; [24]",90
same,"Plant response rating, Pigweed, Palmer","pigweed, palmer [7]; [23]",100
same,"Plant response rating, Pigweed, Palmer","pigweed, palmer [7]; [24]",100
same,"Plant response rating, Ragweed",ragweed [8]; [23],40
same,"Plant response rating, Ragweed",ragweed [8]; [24],80
same,"Plant response rating, Ryegrass, Italian","ryegrass, Italian [9]; [23]",90
same,"Plant response rating, Ryegrass, Italian","ryegrass, Italian [9]; [24]",100
same,"Plant response rating, Soybean",soybean [10]; [23],80
same,"Plant response rating, Soybean",soybean [10]; [24],100
same,"Plant response rating, Wheat",wheat [11]; [23],30
same,"Plant response rating, Wheat",wheat [11]; [24],80
same,Blackgrass plant response rating,"blackgrass [12]; 125 g ai/ha, postemergence, 10 days, 0 to 100 scale, 0 no effect, 100 complete control",90
same,"Plant response rating, Blackgrass","blackgrass [12]; 500 g ai/ha, postemergence, 10 days, visual injury, 0 to 100 scale (0 no effect, 100 complete control)",90
same,Corn plant response rating,corn [13]; [25],70
same,"Plant response rating, Corn",corn [13]; 500 g ai/ha,90
same,"Foxtail, Giant plant response rating","foxtail, giant [14]; [25]",90
same,"Plant response rating, Foxtail, Giant","foxtail, giant [14]; 500 g ai/ha",90
same,Goosegrass plant response rating,goosegrass [15]; [25],90
same,"Plant response rating, Goosegrass",goosegrass [15]; 500 g ai/ha,100
same,Kochia plant response rating,kochia [16]; [25],80
same,"Plant response rating, Kochia",kochia [16]; 500 g ai/ha,90
same,"Oat, Wild plant response rating","oat, wild [17]; [25]",70
same,"Plant response rating, Oat, Wild","oat, wild [17]",90
same,"Pigweed, Palmer plant response rating","pigweed, palmer [18]; [25]",90
same,"Plant response rating, Pigweed, Palmer","pigweed, palmer [18]",100
same,Ragweed plant response rating,ragweed [19]; [25],40
same,"Plant response rating, Ragweed",ragweed [19],90
same,"Ryegrass, Italian plant response rating","ryegrass, Italian [20]; [25]",50
same,"Plant response rating, Ryegrass, Italian","ryegrass, Italian [20]",100
same,Soybean plant response rating,soybean [21]; [25],100
same,"Plant response rating, Soybean",soybean [21],100
same,Wheat plant response rating,wheat [22]; [25],80
same,"Plant response rating, Wheat",wheat [22],90
same,Galium plant response rating,galium; [25],100
same,"Plant response rating, Galium",galium; 500 g ai/ha,100
same,Horseweed plant response rating,horseweed; [25],70
same,"Plant response rating, Horseweed",horseweed; 500 g ai/ha,80
same,"Plant response rating, Barnyardgrass",barnyardgrass,35
same,"Plant response rating, Ducksalad",ducksalad,40
same,"Plant response rating, Rice",rice,10
same,"Plant response rating, Sedge, Umbrella","sedge, umbrella",95
